Values quoted from earlier work, collected in patent US20190298722A1, “USE OF AN INHIBITOR OF THE DE NOVO SYNTHESIS OF PURINES, IN THE TREATMENT OF ADENYLOSUCCINATE LYASE DEFICIENCY” (ASSISTANCE PUBLIQUE-HOPITAUX DE PARIS, priority 2016, published 2019).

Key:
[1] = system: ADSL deficiency patients; settings: child; not confirmed by other studies (Jurecka et al. 2015); cited from earlier work
[2] = system: brains of rats; settings: infusion into the brains of rats; cited from earlier work
[3] = system: ADSL deficiency patient; settings: one patient, after 9 months of treatment; cited from earlier work

Structure (SMILES) | motor coordination and seizure control [1] | other results
O=C[C@H](O)[C@H](O)[C@H](O)CO [D-ribose] | improvement | –
Nc1c(C(=O)N[C@@H](CC(=O)O)C(=O)O)ncn1[C@@H]1O[C@H](CO)[C@@H](O)[C@H]1O [SAICAr, succinylaminoimidazole carboxamide riboside] | – | neuronal damage [2]: significant neuronal damage
C[S+](CC[C@H](N)C(=O)[O-])C[C@H]1O[C@@H](n2cnc3c(N)ncnc32)[C@H](O)[C@@H]1O (stereo partly shown) [SAMe, S-adenosyl-1-methionine] | – | clinical and biological parameters [3]: no improvement
O=c1ccn([C@@H]2O[C@H](CO)[C@@H](O)[C@H]2O)c(=O)[nH]1 [uridine] | improvement | –
